Laboratory results from patent US9718819B2 (Merck Sharp & Dohme Corp., priority 2012, dated 2017).
pIC50: −log10 of the molar value.

The compounds below were run against HIV-1 RT wild-type enzyme (Human immunodeficiency virus type 1 group M subtype B (isolate HXB2) (HIV-1), UniProt P04585) (assay: HIV-1 reverse transcriptase inhibitory activity (RT polymerase assay)). Conditions: HIV-1 RT wild-type enzyme 83 pM; RNA-dependent DNA polymerase activity; read-out: IC50.
Format: biochemical
In short: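 Enzyme and compound were preincubated 30 min at room temperature, then RNA/DNA hybrid (16.6 nM final; HCV-derived RNA, biotinylated primer) plus 2 μM dNTPs and 66.6 nM Ru-dUTP added, 90 min at 37 °C. Avidin capture and ECL counting; percent inhibition relative to DMSO (0%) and 1 μM efavirenz (100%), four-parameter IC50 fit.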

Row | SMILES | pIC50
1 | N#Cc1cc(Cl)cc(Oc2c(C(F)(F)F)ncn(Cc3cnc(-c4ccc(F)cc4)[nH]c3=O)c2=O)c1 [Example 146, 3-chloro-5-((1-((2-(4-fluorophenyl)-6-oxo-1,6-dihydropyrimidin-5-yl)methyl)-6-oxo-4-(trifluoromethyl)-1,6-dihydropyrimidin-5-yl)oxy)benzonitrile] | 7.72
2 | N#Cc1cc(Cl)cc(Oc2c(C(F)(F)F)ncn(Cc3cnc(-c4ccccc4F)[nH]c3=O)c2=O)c1 [Example 147, 3-chloro-5-((1-((2-(2-fluorophenyl)-6-oxo-1,6-dihydropyrimidin-5-yl)methyl)-6-oxo-4-(trifluoromethyl)-1,6-dihydropyrimidin-5-yl)oxy)benzonitrile] | 7.77
3 | N#Cc1cc(Cl)cc(Oc2c(C(F)(F)F)ncn(Cc3cnc(-c4ccn[nH]4)[nH]c3=O)c2=O)c1 [Example 148, 3-chloro-5-((6-oxo-1-((6-oxo-2-(1H-pyrazol-5-yl)-1,6-dihydropyrimidin-5-yl)methyl)-4-(trifluoromethyl)-1,6-dihydropyrimidin-5-yl)oxy)benzonitrile] | 8.05
4 | N#Cc1cc(Cl)cc(Oc2c(C(F)(F)F)ncn(Cc3cnc(-c4ccccc4)[nH]c3=O)c2=O)c1 [Example 149, 3-chloro-5-((6-oxo-1-((6-oxo-2-phenyl-1,6-dihydropyrimidin-5-yl)methyl)-4-(trifluoromethyl)-1,6-dihydropyrimidin-5-yl)oxy)benzonitrile] | 7.85
5 | N#Cc1cc(Cl)cc(Oc2c(C(F)(F)F)ncn(Cc3cnc(-c4cccc(F)c4)[nH]c3=O)c2=O)c1 [Example 150, 3-chloro-5-((1-((2-(3-fluorophenyl)-6-oxo-1,6-dihydropyrimidin-5-yl)methyl)-6-oxo-4-(trifluoromethyl)-1,6-dihydropyrimidin-5-yl)oxy)benzonitrile] | 8.05
6 | N#Cc1cc(Cl)cc(Oc2c(C(F)(F)F)ncn(Cc3cnc(-c4ccc(Cl)cc4)[nH]c3=O)c2=O)c1 [Example 151, 3-chloro-5-((1-((2-(4-chlorophenyl)-6-oxo-1,6-dihydropyrimidin-5-yl)methyl)-6-oxo-4-(trifluoromethyl)-1,6-dihydropyrimidin-5-yl)oxy)benzonitrile] | 7.55
7 | N#Cc1cc(Cl)cc(Oc2c(C(F)(F)F)ncn(Cc3cnc(-c4ccc(Cl)nc4)[nH]c3=O)c2=O)c1 [Example 152, 3-chloro-5-((1-((2-(6-chloropyridin-3-yl)-6-oxo-1,6-dihydropyrimidin-5-yl)methyl)-6-oxo-4-(trifluoromethyl)-1,6-dihydropyrimidin-5-yl)oxy)benzonitrile] | 7.49
8 | N#Cc1cc(Cl)cc(Oc2c(C(F)(F)F)ncn(Cc3cnc(-c4ccc(OC(F)(F)F)cc4)[nH]c3=O)c2=O)c1 [Example 153, 3-chloro-5-((6-oxo-1-((6-oxo-2-(4-(trifluoromethoxy)phenyl)-1,6-dihydropyrimidin-5-yl)methyl)-4-(trifluoromethyl)-1,6-dihydropyrimidin-5-yl)oxy)benzonitrile] | 7.48
9 | N#Cc1cc(Cl)cc(Oc2c(C(F)(F)F)ncn(Cc3cnc(C(N)=O)[nH]c3=O)c2=O)c1 [Example 154, 5-((5-(3-chloro-5-cyanophenoxy)-6-oxo-4-(trifluoromethyl)pyrimidin-1(6H)-yl)methyl)-6-oxo-1,6-dihydropyrimidine-2-carboxamide] | 7.38
10 | N#Cc1cc(Cl)cc(Oc2c(C(F)(F)F)ncn(Cc3cnc(C#N)[nH]c3=O)c2=O)c1 [Example 155, 5-((5-(3-chloro-5-cyanophenoxy)-6-oxo-4-(trifluoromethyl)pyrimidin-1(6H)-yl)methyl)-6-oxo-1,6-dihydropyrimidine-2-carbonitrile] | 7.03
11 | CC(=O)c1ncc(Cn2cnc(C(F)(F)F)c(Oc3cc(Cl)cc(C#N)c3)c2=O)c(=O)[nH]1 [Example 156, 3-((1-((2-acetyl-6-oxo-1,6-dihydropyrimidin-5-yl)methyl)-6-oxo-4-(trifluoromethyl)-1,6-dihydropyrimidin-5-yl)oxy)-5-chlorobenzonitrile] | 7.62
